Laboratory results: patent publication US10294202B2, “Pyrrolidinones as herbicides” (FMC Corporation, priority 2013, dated 2019)

Legend:
[1] = test system: lambsquarters; experiment: Test C pre-/postemergence herbicide test; assay type: in vivo, Chenopodium album
Method in brief: (§1)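 Greenhouse pots; formulation = non-phytotoxic solvent mix + surfactant. PRE onto seeds in loam:sand; POST at 1–4 leaves (2–18 cm) in peat moss/vermiculite medium. Read-out: visual % control vs untreated, day 13–15.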

[2] = test system: sedge, umbrella; experiment: Test B flooded paddy test; assay type: in vivo, Cyperus difformis; settings: 500 g ai/ha, Flood; scale of 0 to 100 where 0 is no effect and 100 is complete control
Method in brief: (§2)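 Scoring: visual, compared with untreated controls, 0 = no effect through 100 = complete control, taken 13 to 15 days after treatment in the greenhouse. Compounds had been added to paddy water over soil flooded 3 cm deep at the plants' 2-leaf stage.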

[3] = test system: corn; experiment: Test C pre-/postemergence herbicide test; assay type: in vivo, Zea mays
Method in brief: as §1

[4] = test system: oat, wild; experiment: Test C pre-/postemergence herbicide test; assay type: in vivo, Avena fatua; settings: Postemergence
Method in brief: as §1

[5] = test system: barnyardgrass; experiment: Test B flooded paddy test; assay type: in vivo, Echinochloa crus-galli; settings: 500 g ai/ha, Flood; scale of 0 to 100 where 0 is no effect and 100 is complete control
Method in brief: as §2

[6] = test system: pigweed; experiment: Test C pre-/postemergence herbicide test; assay type: in vivo, Amaranthus retroflexus
Method in brief: as §1

[7] = test system: wheat (winter wheat); experiment: Test C pre-/postemergence herbicide test; assay type: in vivo, Triticum aestivum
Method in brief: as §1

[8] = test system: soybean; experiment: Test C pre-/postemergence herbicide test; assay type: in vivo, Glycine max
Method in brief: as §1

[9] = test system: ryegrass, Italian; experiment: Test C pre-/postemergence herbicide test; assay type: in vivo, Lolium multiflorum
Method in brief: as §1

[10] = test system: barnyardgrass; experiment: Test C pre-/postemergence herbicide test; assay type: in vivo, Echinochloa crus-galli
Method in brief: as §1

[11] = test system: ragweed; experiment: Test C pre-/postemergence herbicide test; assay type: in vivo, Ambrosia elatior
Method in brief: as §1

[12] = test system: ducksalad; experiment: Test B flooded paddy test; assay type: in vivo, Heteranthera limosa; settings: 500 g ai/ha, Flood; scale of 0 to 100 where 0 is no effect and 100 is complete control
Method in brief: as §2

[13] = test system: waterhemp; experiment: Test C pre-/postemergence herbicide test; assay type: in vivo, Amaranthus rudis
Method in brief: as §1

[14] = test system: morningglory; experiment: Test C pre-/postemergence herbicide test; assay type: in vivo, Ipomoea coccinea
Method in brief: as §1

[15] = test system: galium; experiment: Test C pre-/postemergence herbicide test; assay type: in vivo, Galium aparine
Method in brief: as §1

[16] = Postemergence, 16 g ai/ha, scale 0 to 100 (0 no effect, 100 complete control)
[17] = Postemergence, 31 g ai/ha, scale 0 to 100 (0 no effect, 100 complete control)
[18] = Postemergence, 62 g ai/ha, scale 0 (no effect) to 100 (complete control)
[19] = Postemergence, 125 g ai/ha, scale 0 to 100 (0 no effect, 100 complete control)
[20] = Preemergence, 31 g ai/ha, scale 0 to 100, 0 is no effect and 100 is complete control
[21] = Preemergence, 62 g ai/ha, scale 0 to 100 (0 no effect, 100 complete control)
[22] = Preemergence, 125 g ai/ha, scale 0 to 100 (0 no effect, 100 complete control)
[23] = Preemergence, 16 g ai/ha, scale 0 to 100

CN1CC(c2cccc(C(F)(F)F)c2)C(C(=O)Nc2ccccc2F)C1=O (stereo not shown) [Compound 277]
0: Plant response rating, Lambsquarters [1, 23] | Plant response rating, Sedge, Umbrella [2] | Plant response rating, Corn [3, 16] | Plant response rating, Corn [3, 17] | Plant response rating, Corn [3, 23] | Plant response rating, Oat, Wild ([4]; 16 g ai/ha, scale 0 to 100 (0 no effect, 100 complete control)) | Plant response rating, Oat, Wild ([4]; 31 g ai/ha, scale 0 to 100 (0 no effect, 100 complete control)) | Plant response rating, Oat, Wild ([4]; 62 g ai/ha, scale 0 (no effect) to 100 (complete control)) | Plant response rating, Pigweed [6, 23] | Plant response rating, Wheat [7, 16] | Plant response rating, Wheat [7, 17] | Plant response rating, Wheat [7, 18] | Plant response rating, Wheat [7, 19] | Plant response rating, Soybean [8, 16] | Plant response rating, Soybean [8, 17] | Plant response rating, Soybean [8, 18] | Plant response rating, Soybean [8, 19] | Soybean plant response rating [8, 20] | Soybean plant response rating [8, 21] | Plant response rating, Soybean [8, 23] | Plant response rating, Ryegrass, Italian [9, 16] | Plant response rating, Ryegrass, Italian [9, 17] | Ragweed plant response rating [11, 20] | Ragweed plant response rating [11, 21] | Plant response rating, Ragweed [11, 23] | Plant response rating, Waterhemp [13, 23] | Morningglory plant response rating [14, 20] | Morningglory plant response rating [14, 21] | Plant response rating, Morningglory [14, 23] | Plant response rating, Galium [15, 23]
25: Plant response rating, Lambsquarters [1, 16] | Corn plant response rating [3, 20]
55: Plant response rating, Waterhemp [13, 22]
5: Plant response rating, Oat, Wild ([4]; 125 g ai/ha, scale 0 to 100 (0 no effect, 100 complete control)) | Plant response rating, Pigweed [6, 16] | Plant response rating, Soybean [8, 22] | Plant response rating, Ryegrass, Italian [9, 18] | Plant response rating, Barnyardgrass [10, 16] | Plant response rating, Waterhemp [13, 16] | Plant response rating, Waterhemp [13, 17] | Plant response rating, Waterhemp [13, 18] | Plant response rating, Waterhemp [13, 19]
10: Plant response rating, Corn [3, 19] | Plant response rating, Pigweed [6, 17] | Plant response rating, Pigweed [6, 18] | Pigweed plant response rating [6, 20] | Plant response rating, Ragweed [11, 16]
85: Corn plant response rating [3, 21]
15: Plant response rating, Barnyardgrass [10, 17] | Plant response rating, Morningglory [14, 16]
80: Plant response rating, Lambsquarters [1, 22] | Plant response rating, Barnyardgrass [10, 19]
90: Plant response rating, Corn [3, 22] | Plant response rating, Barnyardgrass [5] | Galium plant response rating [15, 21]
30: Plant response rating, Lambsquarters [1, 17] | Plant response rating, Pigweed [6, 19] | Plant response rating, Ryegrass, Italian [9, 23] | Plant response rating, Morningglory [14, 17] | Plant response rating, Morningglory [14, 18]
45: Plant response rating, Morningglory [14, 22] | Plant response rating, Galium [15, 17]
98: Barnyardgrass plant response rating [10, 21] | Plant response rating, Barnyardgrass [10, 22]
95: Barnyardgrass plant response rating [10, 20] | Plant response rating, Barnyardgrass [10, 23]
50: Waterhemp plant response rating [13, 21]
35: Pigweed plant response rating [6, 21] | Plant response rating, Ryegrass, Italian [9, 19] | Ryegrass, Italian plant response rating [9, 21] | Plant response rating, Ragweed [11, 18] | Waterhemp plant response rating [13, 20]
60: Wheat plant response rating [7, 20] | Plant response rating, Galium [15, 18]
75: Lambsquarters plant response rating [1, 21] | Plant response rating, Galium [15, 19]
70: Wheat plant response rating [7, 21] | Plant response rating, Barnyardgrass [10, 18]
40: Plant response rating, Lambsquarters [1, 18] | Plant response rating, Lambsquarters [1, 19] | Plant response rating, Pigweed [6, 22] | Plant response rating, Wheat [7, 23] | Ryegrass, Italian plant response rating [9, 20] | Plant response rating, Ryegrass, Italian [9, 22] | Plant response rating, Ragweed [11, 17] | Plant response rating, Ragweed [11, 19] | Plant response rating, Ragweed [11, 22] | Plant response rating, Morningglory [14, 19] | Plant response rating, Galium [15, 16]
100: Plant response rating, Ducksalad [12] | Galium plant response rating [15, 20] | Plant response rating, Galium [15, 22]
20: Lambsquarters plant response rating [1, 20] | Plant response rating, Corn [3, 18]
